From patent US20240342320A1, “POLYPEPTIDE TARGETING INTEGRIN ALPHA 6 AND USE THEREOF” (GUANGZHOU GENBIONOVA MEDICAL TECHNOLOGY CO., LTD., priority 2021, published 2024)
Read-outs that look alike come from different tables or passages of the source. Positions of bridges follow the written chain, without caps; N, C: chain ends. Non-standard residues stand in square brackets, D forms with d. Residues, ends and D or L forms follow the SMILES beside them. *: point of attachment. NOTA = O=C(O)CN1CCN(CC(=O)O)CCN(CC(=O)*)CC1; PEG4 = NCCOCCOCCOCCOCCC(=O)O

Experiments:
[1] = biological target: T1, integrin α6β4 (Homo sapiens, UniProt P16144+P23229); assay: Microscale thermophoresis (MST) affinity to integrin α6β4; assay type: binding; conditions: MST
T1 sequence (P23229 24-1050 limits assumed): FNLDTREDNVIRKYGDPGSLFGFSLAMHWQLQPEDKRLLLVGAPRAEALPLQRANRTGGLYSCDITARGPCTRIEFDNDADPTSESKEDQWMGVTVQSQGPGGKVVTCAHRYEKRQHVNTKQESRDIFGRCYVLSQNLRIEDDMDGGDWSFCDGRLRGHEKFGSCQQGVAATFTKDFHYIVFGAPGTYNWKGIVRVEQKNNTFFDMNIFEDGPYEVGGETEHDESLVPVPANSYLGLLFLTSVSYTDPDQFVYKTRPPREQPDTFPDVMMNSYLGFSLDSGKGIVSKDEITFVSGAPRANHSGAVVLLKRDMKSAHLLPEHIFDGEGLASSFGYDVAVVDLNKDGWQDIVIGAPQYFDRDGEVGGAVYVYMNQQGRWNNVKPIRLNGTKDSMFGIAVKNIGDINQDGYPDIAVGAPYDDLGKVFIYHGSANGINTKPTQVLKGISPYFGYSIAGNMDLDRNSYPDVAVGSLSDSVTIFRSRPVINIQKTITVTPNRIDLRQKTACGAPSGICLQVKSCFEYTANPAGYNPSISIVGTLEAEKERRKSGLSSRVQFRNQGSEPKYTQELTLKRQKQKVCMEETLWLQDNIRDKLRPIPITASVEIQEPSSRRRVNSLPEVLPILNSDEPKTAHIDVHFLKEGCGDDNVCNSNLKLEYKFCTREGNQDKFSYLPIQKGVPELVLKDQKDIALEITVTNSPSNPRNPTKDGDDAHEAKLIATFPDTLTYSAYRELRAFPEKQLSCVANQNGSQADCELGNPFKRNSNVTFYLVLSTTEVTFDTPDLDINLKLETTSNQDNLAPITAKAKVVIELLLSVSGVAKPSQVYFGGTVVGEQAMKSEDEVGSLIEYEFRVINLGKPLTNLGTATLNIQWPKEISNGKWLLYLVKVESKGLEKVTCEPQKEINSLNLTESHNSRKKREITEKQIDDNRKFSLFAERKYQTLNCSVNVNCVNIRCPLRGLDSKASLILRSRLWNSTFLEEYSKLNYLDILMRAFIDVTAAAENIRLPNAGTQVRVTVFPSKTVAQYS
T1 sequence (P16144 28-710 partner limits assumed): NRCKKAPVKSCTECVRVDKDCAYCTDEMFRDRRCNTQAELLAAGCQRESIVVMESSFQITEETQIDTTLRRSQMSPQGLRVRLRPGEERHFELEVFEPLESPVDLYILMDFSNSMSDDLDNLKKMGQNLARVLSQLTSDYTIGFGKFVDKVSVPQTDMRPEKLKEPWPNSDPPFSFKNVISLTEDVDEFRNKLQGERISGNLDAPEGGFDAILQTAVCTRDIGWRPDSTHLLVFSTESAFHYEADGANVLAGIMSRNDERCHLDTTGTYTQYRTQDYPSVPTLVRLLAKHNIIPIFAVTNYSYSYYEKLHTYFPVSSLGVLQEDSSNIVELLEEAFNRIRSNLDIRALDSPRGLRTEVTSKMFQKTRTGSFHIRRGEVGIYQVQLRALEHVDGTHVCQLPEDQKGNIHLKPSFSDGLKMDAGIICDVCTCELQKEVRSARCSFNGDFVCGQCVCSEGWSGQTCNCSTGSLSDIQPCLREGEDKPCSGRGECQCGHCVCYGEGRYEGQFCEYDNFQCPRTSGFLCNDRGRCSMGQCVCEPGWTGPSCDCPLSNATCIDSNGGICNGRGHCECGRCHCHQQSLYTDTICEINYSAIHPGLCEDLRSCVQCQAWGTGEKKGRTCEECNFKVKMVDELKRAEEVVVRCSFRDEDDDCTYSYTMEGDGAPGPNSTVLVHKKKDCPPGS
Experimental: (§1) The affinity between these 18 polypeptides and integrin α6β4 was detected by microscale thermophoresis (MST) method as follows: • 1) Integrin α6β4 protein was dissolved to 800 nM, and polypeptide was dissolved to 100 μM. • 2) A RED-tris-NTA second-generation dye was diluted to 100 nM by using the MO series RED-tris-NTA protein labeling kit. • 3) 100 μl α6β4 protein was mixed with 50 μl dye and incubated at room temperature for 30 min, so that the α6β4 protein binds to the dye. • 4) 10 μl polypeptide was transferred into a PCR tube, and was diluted with PBST (containing 0.05% Tween 20) at a ratio of 1:1 to 16 gradients of concentrations. • 5) 3 μl protein/dye mixture was transferred into a PCR tube, 3 μl of 16 different concentrations of polypeptides was respectively added and mixed well. • 6) The mixture was absorbed by capillary and loaded on machine (instrument model Monolith NT.115) to assay, parameters were set as 80% LED/excitation power and medium MST power. • 7) MO. Affinity Analysis software was used to calculate the equilibrium dissociation constant KD between α6β4 protein and polypeptide by KD fitting mode.

[2] = biological target: T2, integrin α6β4 (Homo sapiens, UniProt P23229); assay: as above; assay type: binding; conditions: for Affinity relative to RWY: relative to CRWYDENAC (RWY) = 1.00
T2 sequence (P23229 24-1050 limits assumed): T1 sequence (P23229 24-1050 limits assumed)
T2 sequence (P16144 28-710 partner limits assumed): T1 sequence (P16144 28-710 partner limits assumed)
Experimental: as §1

[3] = integrin α6β4, determination 1, read-out: KD (um) 1
[4] = integrin α6β4, determination 2, read-out: KD (um) 2
[5] = integrin α6β4, determination 3, read-out: KD (um) 3
[6] = integrin α6β4, mean of 3, read-out: KD Mean value (μm)

Compound | Kd [1, 3] [µM] | Kd [1, 4] [µM] | Kd [1, 5] [µM] | Kd [1, 6] [µM] | Affinity relative to RWY [2] | Kd ([2]; MST, integrin α6β4) [µM] | Kd ([1]; integrin α6β4, read-out: KD) [µM]
C[C@H](NC(=O)[C@H](Cc1ccc(O)cc1)NC(=O)[C@H](Cc1c[nH]c2ccccc12)NC(=O)[C@@H](N)CCCNC(=N)N)C(=O)N[C@@H](CCC(=O)O)C(=O)N[C@@H](CC(N)=O)C(=O)O [P16, RWYAEN] (H-RWYAEN-OH; N-terminus and C-terminus assumed) | 7.31 | 6.08 | 9.74 | 7.71 | 0.90 |  | 
C[C@H](NC(=O)[C@H](CC(N)=O)NC(=O)[C@H](C)NC(=O)[C@H](CC(=O)O)NC(=O)[C@H](Cc1ccc(O)cc1)NC(=O)[C@H](Cc1c[nH]c2ccccc12)NC(=O)[C@@H](N)CCCNC(=N)N)C(=O)O [P10, RWYDANA] (H-RWYDANA-OH; N-terminus and C-terminus assumed) | 62.1 | 17.5 | 12.4 | 30.6 | 0.23 |  | 
N=C(N)NCCC[C@H](N)C(=O)N[C@@H](Cc1c[nH]c2ccccc12)C(=O)N[C@@H](Cc1ccc(O)cc1)C(=O)N[C@@H](CC(=O)O)C(=O)NCCOCCOCCOCCOCCC(=O)N[C@@H](CCCCNC(=O)CN1CCN(CC(=O)O)CCN(CC(=O)O)CC1)C(=O)O [RWYD-PEG4-K-NOTA] (H-RWYD[PEG4]K(NOTA)-OH) |  |  |  |  |  | 0.642 ± 0.261 | 
C[C@@H]1NC(=O)[C@H](CC(N)=O)NC(=O)[C@H](CCC(=O)O)NC(=O)[C@H](CC(=O)O)NC(=O)[C@H](Cc2ccc(O)cc2)NC(=O)[C@H](Cc2c[nH]c3ccccc23)NC(=O)[C@H](CCCNC(=N)N)NC(=O)[C@@H](N)CSSC[C@@H](C(=O)O)NC1=O [P1, CRWYDENAC] (H-CRWYDENAC-OH; disulfide 1-9; N-terminus and C-terminus assumed) | 8.59 | 6.52 | 5.81 |  | 1.00 |  | 6.97 ± 1.44
C[C@@H]1NC(=O)[C@H](CC(N)=O)NC(=O)[C@H](CCC(=O)O)NC(=O)[C@H](C)NC(=O)[C@H](Cc2ccc(O)cc2)NC(=O)[C@H](Cc2c[nH]c3ccccc23)NC(=O)[C@H](CCCNC(=N)N)NC(=O)[C@@H](N)CSSC[C@@H](C(=O)O)NC1=O [P5, CRWYAENAC] (H-CRWYAENAC-OH; disulfide 1-9; N-terminus and C-terminus assumed) | 0.36 | 0.22 | 0.65 | 0.41 | 17.01 |  | 
N=C(N)NCCC[C@H](N)C(=O)N[C@@H](Cc1c[nH]c2ccccc12)C(=O)N[C@@H](Cc1ccc(O)cc1)C(=O)N[C@@H](CC(=O)O)C(=O)N[C@@H](CCC(=O)O)C(=O)O [P13, RWYDE] (H-RWYDE-OH; N-terminus and C-terminus assumed) | 14.7 | 78.8 | 99.6 | 64.4 | 0.11 |  | 
C[C@H](NC(=O)[C@H](CC(=O)O)NC(=O)[C@H](Cc1ccc(O)cc1)NC(=O)[C@H](Cc1c[nH]c2ccccc12)NC(=O)[C@@H](N)CCCNC(=N)N)C(=O)N[C@@H](CC(N)=O)C(=O)O [P11, RWYDAN] (H-RWYDAN-OH; N-terminus and C-terminus assumed) | 34.6 | 23.2 | 35.7 | 31.2 | 0.22 |  | 
C[C@@H]1NC(=O)[C@H](CC(N)=O)NC(=O)[C@H](CCC(=O)O)NC(=O)[C@H](CC(=O)O)NC(=O)[C@H](Cc2ccc(O)cc2)NC(=O)[C@H](C)NC(=O)[C@H](CCCNC(=N)N)NC(=O)[C@@H](N)CSSC[C@@H](C(=O)O)NC1=O [P3, CRAYDENAC] (H-CRAYDENAC-OH; disulfide 1-9; N-terminus and C-terminus assumed) | 14.4 | 11.8 | 13.8 | 13.3 | 0.52 |  | 
C[C@@H]1NC(=O)[C@H](CC(N)=O)NC(=O)[C@H](C)NC(=O)[C@H](CC(=O)O)NC(=O)[C@H](Cc2ccc(O)cc2)NC(=O)[C@H](Cc2c[nH]c3ccccc23)NC(=O)[C@H](CCCNC(=N)N)NC(=O)[C@@H](N)CSSC[C@@H](C(=O)O)NC1=O [P6, CRWYDANAC] (H-CRWYDANAC-OH; disulfide 1-9; N-terminus and C-terminus assumed) | 1.21 | 7.99 | 3.83 | 4.34 | 1.61 |  | 
C[C@@H]1NC(=O)[C@H](CC(N)=O)NC(=O)[C@H](CCC(=O)O)NC(=O)[C@H](CC(=O)O)NC(=O)[C@H](Cc2ccc(O)cc2)NC(=O)[C@H](Cc2c[nH]c3ccccc23)NC(=O)[C@H](C)NC(=O)[C@@H](N)CSSC[C@@H](C(=O)O)NC1=O [P2, CAWYDENAC] (H-CAWYDENAC-OH; disulfide 1-9; N-terminus and C-terminus assumed) | 4.03 | 12.1 | 3.58 | 6.58 | 1.06 |  | 
C[C@@H]1NC(=O)[C@H](C)NC(=O)[C@H](CCC(=O)O)NC(=O)[C@H](CC(=O)O)NC(=O)[C@H](Cc2ccc(O)cc2)NC(=O)[C@H](Cc2c[nH]c3ccccc23)NC(=O)[C@H](CCCNC(=N)N)NC(=O)[C@@H](N)CSSC[C@@H](C(=O)O)NC1=O [P7, CRWYDEAAC] (H-CRWYDEAAC-OH; disulfide 1-9; N-terminus and C-terminus assumed) | 0.25 | 0.25 | 1.37 | 0.62 | 11.19 |  | 
N=C(N)NCCC[C@H](N)C(=O)N[C@@H](Cc1c[nH]c2ccccc12)C(=O)N[C@@H](Cc1ccc(O)cc1)C(=O)N[C@@H](CC(=O)O)C(=O)N[C@@H](CCC(=O)O)C(=O)N[C@@H](CC(N)=O)C(=O)O [P9, RWYDEN] (H-RWYDEN-OH; N-terminus and C-terminus assumed) | 9.69 | 8.73 | 13.1 | 10.5 | 0.66 |  | 
C[C@H](NC(=O)[C@H](CCC(=O)O)NC(=O)[C@H](CC(=O)O)NC(=O)[C@H](Cc1ccc(O)cc1)NC(=O)[C@H](Cc1c[nH]c2ccccc12)NC(=O)[C@@H](N)CCCNC(=N)N)C(=O)O [P12, RWYDEA] (H-RWYDEA-OH; N-terminus and C-terminus assumed) | 5.26 | 2.49 | 1.74 | 3.16 | 2.20 |  | 
C[C@H](NC(=O)[C@H](CC(=O)O)NC(=O)[C@H](Cc1ccc(O)cc1)NC(=O)[C@H](Cc1c[nH]c2ccccc12)NC(=O)[C@@H](N)CCCNC(=N)N)C(=O)O [P14, RWYDA] (H-RWYDA-OH; N-terminus and C-terminus assumed) | 6.28 | 4.69 | 4.22 | 5.06 | 1.38 |  | 
